Measured values from patent publication US11465965B2, “Double-headed protease inhibitor” (UBE INDUSTRIES, LTD., priority 2017, dated 2022).
Counter-ions that a name gives are not always drawn. Like-named read-outs stand apart in the source and are kept apart here.

Experiments:
DIO mouse = experiment: Anti-obesity effect test using DIO mouse; format: in vivo; conditions: 336 h, DIO mice, vs vehicle group, read-out: Weight loss rate; for inhibition in vivo at 30 mg/kg: oral 30 mg/kg once daily for 2 weeks; for inhibition in vivo at 100 mg/kg: oral 100 mg/kg once daily for 2 weeks
Experimental: (Test Example 4): Anti-Obesity Effect Test Using DIO Mouse
Diet-induced obesity (DIO) mice (D-12492 diet, male, C57BL-DIO, 26 to 28-week old) were orally administered with a 0.5 W/V % methylcellulose suspension comprising each test compound (Compound administration group, 5 or 6 mice/group) or a 0.5 W/V % methylcellulose suspension (Compound non-administration group (Vehicle group), 6 mice/group) once daily for 2 weeks. Weight loss rate was calculated by the following equation. Weight loss rate (%) of each Compound administration group−(1−average weight at the last day of the test of each Compound administration group/average weight at the last day of the test of Vehicle group)×100

[1] = Rat pharmacokinetic (PK) test (plasma concentration after oral administration); conditions: male, SD
Experimental: Each test compound was suspended in a 0.5 W/V % methylcellulose 400 solution to prepare a suspension, and the resulting suspension was orally administered to a male SD rat of 7 to 8-week old (weight: 180 to 250 g). After 0.25, 0.5, 1, 2, 4, 8, and 24 hour(s) of the administration of each test compound, blood (EDTA-added blood) was collected from jugular vein under isoflurane inhalation anesthesia. […] To the resulting blood plasma was added acetonitrile, a mixed solvent of acetonitrile and water (1:1 (V/V)), or a mixed solvent of acetonitrile and 0.1 M hydrochloric acid (1:1 (V/V)), then the resulting mixture was mixed at 750 rpm for 3 minutes in a shaker, and subjected to centrifugal separation at 3700 rpm for 2 minutes in a centrifuge to remove proteins. The resulting sample was subjected to LC (liquid chromatography)/MS (mass spectrometry) measurement under the following measurement conditions.
Each compound concentration in blood plasma at each time of blood collection was calculated according to the internal standard method, and, area under the plasma concentration vs. time curve (AUCall (Area Under Curve)) was calculated according to the trapezoidal method.
The LC and MS systems used in the present test are as follows.
LC: LC20 or LC30 HPLC system manufactured by Shimadzu Corporation
Column: Phenomenex Kinetex C18 (50×2.1 mm, 2.6 μm)
Column temperature: 40° C.
Mobile phase A: aqueous solution with 0.1% formic acid, Mobile phase B: 50% acetonitrile/methanol solution with 0.1% formic acid

[2] = molecular target: T1, Human recombinant trypsin (Homo sapiens, UniProt P07477); experiment: Human trypsin inhibition test; format: biochemical; conditions: 20 minutes after reaction start, read-out: Inhibition rate (trypsin); for inhibition at 0.001 µM: compound concentration 1 nM; for inhibition at 0.01 µM: compound concentration 10 nM; for inhibition at 0.1 µM: compound concentration 100 nM
T1 construct: purchased Wako Pure Chemical Industries, Ltd. 206-17171
Experimental: (Test Example 2): Human Trypsin Inhibition Test
Human recombinant trypsin (manufactured by Wako Pure Chemical Industries, Ltd., code no.: 206-17171) was diluted with an assay buffer (0.1 M Tris-HCl (pH8.0), 0.15 M NaCl, 10 mM CaCl2, 0.05% Brij35) to prepare a 10 ng/mL enzyme solution. Then, Boc-Phe-Ser-Arg-MCA (manufactured by PEPTIDE INSTITUTE, INC., code no.: 3107-v) was diluted with the assay buffer to prepare a 40 μM substrate solution. Each test compound was dissolved into DMSO, then diluted with the assay buffer 100 times, and further appropriately diluted with an assay buffer comprising 1% DMSO to prepare each compound solution. 10 μL of the compound solution, 15 μL of the assay buffer, and 50 μL of the substrate solution were added to a 96 well black plate (manufactured by Thermo Fisher Scientific Inc., code no.: 9502867), mixed, and then 25 μL of the enzyme solution was added thereto, and mixed to start the reaction. Fluorescence intensities at excitation wavelength 355 nm and fluorescence wavelength of 460 nm were measured by using a fluorescence plate reader (Flex station 3) (Test compound addition group). Also, the same reaction as described above except for not adding each test compound was carried out (Test compound non-addition group). Additionally, the same reaction as described above except for not adding each test compound and the enzyme was carried out (Control group). Inhibition rate was calculated by the following equation using fluorescence intensity after 20 minutes of reaction start. Inhibition rate (%)=(1−(fluorescence intensity of Test compound addition group−fluorescence intensity of Control group)[…](fluorescence intensity of Test compound non-addition group−fluorescence intensity of Control group))×100

[3] = molecular target: T2, Human recombinant enteropeptidase (Homo sapiens, UniProt P98073); experiment: Human enteropeptidase inhibition test; format: biochemical; conditions: read-out: Inhibition rate (enteropeptidase); for inhibition at 0.001 µM: compound concentration 1 nM
T2 construct: purchased BIO Vision Inc. 7529-50
Experimental: (Test Example 1): Human Enteropeptidase Inhibition Test
Human recombinant enteropeptidase (manufactured by BIO Vision Inc., catalog no.: 7529-50) was diluted with an assay buffer (50 mM tricine (pH8.0), 0.01 W/V % Tween 20, 10 mM CaCl2) to prepare an […] enzyme solution. Then, 5FAM-Abu-Gly-Asp-Asp-Lys-Ile-Val-Gly-Gly-Lys (CPQ2)-Lys-Lys-NH2 (manufactured by CHINESE PEPTIDE COMPANY, purity: 94.5) was diluted with the assay buffer to prepare a 1.5 μM substrate solution. Each test compound was dissolved into DMSO, then diluted with the assay buffer 100 times, and further appropriately diluted with an assay buffer comprising 1% DMSO to prepare each compound solution. 10 μL of the compound solution, 15 μL of the assay buffer, and 50 μL of the substrate solution were added to a 96 well black plate (manufactured by Thermo Fisher Scientific Inc., code no.: 9502867), mixed, then 25 μL of the enzyme solution was added thereto, and mixed to start the reaction. Fluorescence intensities at excitation wavelength 485 nm and fluorescence wavelength 535 nm were measured by using a fluorescence plate reader (Flex station 3) (Test compound addition group). Also, the same reaction as described above except for not adding each test compound was carried out (Test compound non-addition group). Additionally, the same reaction as described above except for not adding each test compound and the enzyme was carried out (Control group). Inhibition rate was calculated by the following equation using fluorescence intensity after 20 minutes of reaction start. Inhibition rate (%)=(1−(fluorescence intensity of Test compound addition group−fluorescence intensity of Control group)÷(fluorescence intensity of Test compound non-addition group−fluorescence intensity of Control group))×100

[4] = 20 minutes after reaction start
[5] = compound concentration 10 nM, 20 minutes after reaction start
[6] = compound concentration 100 nM, 20 minutes after reaction start

T2 sequence (P98073 whole entry): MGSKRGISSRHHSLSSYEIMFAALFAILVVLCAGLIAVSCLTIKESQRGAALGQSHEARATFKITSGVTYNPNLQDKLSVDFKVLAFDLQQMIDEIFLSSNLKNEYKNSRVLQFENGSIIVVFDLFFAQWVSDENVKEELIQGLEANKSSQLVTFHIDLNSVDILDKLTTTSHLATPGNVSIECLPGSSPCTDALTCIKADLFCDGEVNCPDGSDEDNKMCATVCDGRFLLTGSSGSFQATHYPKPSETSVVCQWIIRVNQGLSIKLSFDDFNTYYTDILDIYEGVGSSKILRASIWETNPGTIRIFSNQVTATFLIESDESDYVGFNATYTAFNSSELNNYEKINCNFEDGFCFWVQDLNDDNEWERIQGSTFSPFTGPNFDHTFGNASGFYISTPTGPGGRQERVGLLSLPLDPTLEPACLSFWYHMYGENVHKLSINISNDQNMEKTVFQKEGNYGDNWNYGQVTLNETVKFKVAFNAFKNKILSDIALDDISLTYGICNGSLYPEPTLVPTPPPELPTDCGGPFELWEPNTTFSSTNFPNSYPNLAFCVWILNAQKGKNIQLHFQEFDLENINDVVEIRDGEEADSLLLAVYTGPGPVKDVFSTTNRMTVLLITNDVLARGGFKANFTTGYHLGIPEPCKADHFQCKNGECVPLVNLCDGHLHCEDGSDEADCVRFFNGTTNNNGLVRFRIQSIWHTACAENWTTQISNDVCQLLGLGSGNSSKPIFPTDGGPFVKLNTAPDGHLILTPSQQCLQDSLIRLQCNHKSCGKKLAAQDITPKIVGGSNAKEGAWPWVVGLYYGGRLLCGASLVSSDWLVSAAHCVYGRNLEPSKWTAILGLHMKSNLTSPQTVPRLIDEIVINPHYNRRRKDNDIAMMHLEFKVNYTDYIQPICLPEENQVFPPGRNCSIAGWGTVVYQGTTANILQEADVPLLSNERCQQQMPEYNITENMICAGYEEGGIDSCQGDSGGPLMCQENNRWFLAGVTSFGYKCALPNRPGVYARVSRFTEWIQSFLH

SMILES | inhibition in vivo at 30 mg/kg (DIO mouse) [%] | AUC ([1]; 10 mg/kg) [ng·h/mL] | inhibition in vivo at 100 mg/kg (DIO mouse) [%] | inhibition at 0.001 µM [2] [%] | inhibition at 0.01 µM [2] [%] | inhibition at 0.1 µM [2] [%] | inhibition at 0.001 µM [3, 4] [%] | inhibition at 0.01 µM [3, 5] [%] | inhibition at 0.1 µM [3, 6] [%] | AUC ([1]; 9 mg/kg) [ng·h/mL] | inhibition at 0.01 µM [3] [%] | inhibition at 0.1 µM [3] [%] | inhibition in vivo at 90 mg/kg (DIO mouse; oral 90 mg/kg once daily for 2 weeks) [%]
N=C(N)Nc1ccc(C(=O)Oc2ccc(CNS(=O)(=O)N(CCOCCOCCN([C@@H](CC(=O)O)C(=O)O)S(=O)(=O)NCc3ccc(OC(=O)c4ccc(NC(=N)N)cc4)cc3)[C@@H](CC(=O)O)C(=O)O)cc2)cc1 [2-(c)] | ≥ 4 | ≤ 100 |  |  |  |  |  |  |  |  |  |  | 
Cl.N=C(N)Nc1ccc(C(=O)Oc2ccc(CNS(=O)(=O)N(CCOCCOCCOCCOCCOCCN([C@@H](CC(=O)O)C(=O)O)S(=O)(=O)NCc3ccc(OC(=O)c4ccc(NC(=N)N)cc4)cc3)[C@@H](CC(=O)O)C(=O)O)cc2)cc1 [5-(c), (2S,22S)-3,21-bis(N-(4-((4-guanidinobenzoyl)oxy)benzyl)sulfamoyl)-6,9,12,15,18-pentaoxa-3,21-diazatricosane-1,2,22,23-tetracarboxylic acid hydrochloride] |  | ≤ 100 | ≥ 4 |  |  |  |  |  |  |  |  |  | 
Cl.N=C(N)Nc1ccc(C(=O)Oc2ccc(CNS(=O)(=O)N(CCOCCOCCOCCOCCOCCOCCN([C@@H](CC(=O)O)C(=O)O)S(=O)(=O)NCc3ccc(OC(=O)c4ccc(NC(=N)N)cc4)cc3)[C@@H](CC(=O)O)C(=O)O)cc2)cc1 [6-(c), (2S,25S)-3,24-bis(N-(4-((4-guanidinobenzoyl)oxy)benzyl)sulfamoyl)-6,9,12,15,18,21-hexaoxa-3,24-diazahexacosane-1,2,25,26-tetracarboxylic acid hydrochloride] |  | ≤ 100 | ≥ 4 |  |  |  |  |  |  |  |  |  | 
N=C(N)Nc1ccc(C(=O)Oc2ccc(CNS(=O)(=O)N(CCCCN([C@@H](CC(=O)O)C(=O)O)S(=O)(=O)NCc3ccc(OC(=O)c4ccc(NC(=N)N)cc4)cc3)[C@@H](CC(=O)O)C(=O)O)cc2)cc1 [8-(b), (2S,2′S)-2,2′-(butane-1,4-diylbis((N-(4-((4-guanidinobenzoyl)oxy)benzyl)sulfamoyl)azanediyl))disuccinic acid trifluoroacetate] |  | ≤ 100 | ≥ 4 | ≥ 50 | ≥ 50 | ≥ 50 | ≥ 50 | ≥ 50 | ≥ 50 |  |  |  | 
N=C(N)Nc1ccc(C(=O)Oc2ccc(COC(=O)N(CC(=O)O)[C@@H](CC(=O)O)C(=O)N[C@@H](CC(=O)O)C(=O)NCCOCCOCCOCCOCCNC(=O)[C@H](CC(=O)O)NC(=O)[C@H](CC(=O)O)N(CC(=O)O)C(=O)OCc3ccc(OC(=O)c4ccc(NC(=N)N)cc4)cc3)cc2)cc1 [15-(b), (4S,7S,26S,29)-4,7,26,29-tetrakis(carboxymethyl)-3,30-bis((4-((4-guanidinobenzoyl)oxy)benzyl)oxy)carbonyl)-5,8,25,28-tetraoxo-12,15,18,21-tetraoxa-3,6,9,24,27,30-hexaazadotriacontane-1,32-dioic acid trifluoroacetate] |  |  |  |  | ≥ 50 | ≥ 50 | ≥ 50 | ≥ 50 | ≥ 50 | ≤ 100 |  |  | 
N=C(N)Nc1ccc(C(=O)Oc2ccc(COC(=O)N(Cc3cccc(C(=O)O)c3)[C@@H](CC(=O)O)C(=O)NCCOCCOCCOCCOCCNC(=O)[C@H](CC(=O)O)N(Cc3cccc(C(=O)O)c3)C(=O)OCc3ccc(OC(=O)c4ccc(NC(=N)N)cc4)cc3)cc2)cc1 [16-(b), (3S,22S)-3,22-bis((3-carboxybenzyl) (((4-(14-guanidinobenzoyl)oxy)benzyl)oxy)carbonyl)amino)-4,21-dioxo-8,11,14,17-tetraoxa-5,20-diazatetracosane-1,24-dioic acid trifluoroacetate] |  |  |  |  | ≥ 50 | ≥ 50 |  |  |  | ≤ 100 | ≥ 50 | ≥ 50 | 
N=C(N)Nc1ccc(C(=O)Oc2ccc(CNS(=O)(=O)N(Cc3cccc(C(=O)NCCOCCOCCOCCOCCNC(=O)c4cccc(CN([C@@H](CC(=O)O)C(=O)O)S(=O)(=O)NCc5ccc(OC(=O)c6ccc(NC(=N)N)cc6)cc5)c4)c3)[C@@H](CC(=O)O)C(=O)O)cc2)cc1 [18-(b), (2S,2′S)-2,2′-((((5,8,11,14-tetraoxa-2,17-diazaoctadecane-1,18-dioyl)bis(3,1-phenylene))bis(methylene))bis(N-(4-((4-guanidinobenzoyl)oxy)benzyl)sulfamoyl)azanediyl))disuccinic acid trifluoroacetate] |  |  |  | ≥ 50 | ≥ 50 | ≥ 50 |  |  |  | ≤ 100 | ≥ 50 | ≥ 50 | ≥ 4
N=C(N)Nc1ccc2c(c1)CCCOc1c(cccc1C(=O)N(CCOCCOCCN(C(=O)c1cccc3c1OCCCc1cc(NC(=N)N)ccc1C(=O)O3)C(CC(=O)O)C(=O)O)C(CC(=O)O)C(=O)O)OC2=O (centres unmarked) [19-(b), 3,12-bis(10-guanidino-13-oxo-6,7,8,13-tetrahydrodibenzo[b,f][1,4]dioxecin-4-carbonyl)-6,9-dioxa-3,12-diazatetradecane-1,2,13,14-tetracarboxylic acid trifluoroacetate] | ≥ 4 | ≤ 100 |  | ≥ 50 | ≥ 50 | ≥ 50 | ≥ 50 | ≥ 50 | ≥ 50 |  |  |  | 
N=C(N)Nc1ccc(C(=O)Oc2cccc(C(=O)N(CCOCCN(C(=O)c3cccc(OC(=O)c4ccc(NC(=N)N)cc4)c3)[C@@H](CC(=O)O)C(=O)O)[C@@H](CC(=O)O)C(=O)O)c2)cc1 [30-(a)] |  | ≤ 100 |  | ≥ 50 | ≥ 50 | ≥ 50 | ≥ 50 | ≥ 50 | ≥ 50 |  |  |  | 
